Source: patent US8481757B2, “Compounds and compositions useful in the treatment of malaria” (Georgua Tech Research Corporation, priority 2010, dated 2013)
Where two headings read alike, the source gives them in different places.

Assays:
[1] = tested on: Plasmodium falciparum parasites (3D7 strain); conditions: from Hawley et al. (Antimicrob Agents Chemother 1998, 42: 682); cited from earlier work
[2] = tested on: Plasmodium falciparum HB3 (chloroquine-sensitive parasite); conditions: from Hawley et al. (Antimicrob Agents Chemother 1998, 42: 682); cited from earlier work
heme crystallization = test: Inhibition of heme crystallization; format: biochemical; conditions: molar equivalents of drug to heme
Cytotoxicity, Vero = format: cell-based; conditions: African green monkey, Vero cells
Cytotoxicity, HepG2 = format: cell-based; conditions: human, HepG2 cells
Cytotoxicity, J774 = format: cell-based; conditions: mouse, J774 cells
[3] = tested on: Plasmodium falciparum HB3 (chloroquine-sensitive parasite); test: Efficacy against Plasmodium falciparum HB3; format: cell-based
[4] = tested on: Plasmodium falciparum parasites (3D7 strain); test: SYBR Green based parasite proliferation assay (antimalarial activity); format: cell-based
[5] = tested on: Plasmodium falciparum Dd2 (chloroquine-resistant parasite); test: Efficacy against Plasmodium falciparum Dd2; format: cell-based
[6] = Plasmodium falciparum, 3D7, Table 5, Example 5 numbering (1-13), read-out: P. falciparum (3D7) IC50
[7] = Plasmodium falciparum, 3D7, Table 1, Example 1 numbering (1-18), read-out: Antimalarial IC50

For `CCN(CC)Cc1cc(Nc2ccnc3cc(Cl)ccc23)ccc1O` [AMQ, amodiaquine], the IC50 [1] is listed as 7.8 nM, the IC50 [2] is listed as 8.5 nM and the “IC50 for heme crystallization” value (heme crystallization) is listed as 1.2 ± 0.19 equivalents.
`CC1=C2Cc3cc(ccc3O)C(=O)O[C@H](C(C)(C)Br)CC[C@](C)(O)[C@H](Br)CC[C@]2(C)[C@@H](Br)CC1` [Compound 1] showed an IC50 (Cytotoxicity, Vero) of 34.6 µM, an IC50 (Cytotoxicity, HepG2) of 21.3 µM and an IC50 (Cytotoxicity, J774) of 19 µM. It also gave an IC50 [3] of 565 nM, an IC50 [4, 6] of 650 nM and an IC50 ([4]; Plasmodium falciparum, 3D7, chloroquine-sensitive parasite, Table 6, Example 5 numbering, read-out: 3D7 IC50) of 658 nM. The IC50 ([4]; Table 5, Example 5 numbering (1-13), read-out: P. falciparum (3D7) IC50) was 660 nM, the IC50 [5] was 497 nM and the “IC50 for heme crystallization” value (heme crystallization) was 2.5 ± 0.13 equivalents.
Compound `CC1=C2Cc3cc(ccc3O)C(=O)O[C@H](C(C)(C)Br)CC[C@](C)(O)/C=C\C[C@]2(C)C=CC1` [Compound 11] has an IC50 [4, 6] of 4600 nM.
Work on `C=C1CC[C@H](Br)[C@@]2(C)CC[C@@H]3O[C@@]3(C)CC[C@@H](C(C)(C)O)OC(=O)c3ccc(O)c(c3)C[C@H]12` [Compound 14] yielded an IC50 [4, 7] of 18000 nM.
For `CC1=CC[C@@H]2O[C@@]2(C)CC[C@@H](C(C)(C)O)OC(=O)c2ccc(O)c(c2)CC2=C(C)CCC12` (stereo partly shown) [Compound 18], the IC50 [4, 7] was over 100000 nM.
With “debromophycolide A [Compound 18 (Example 1)]” the IC50 ([4]; Table 4, Example 3 numbering (1-3), read-out: Antimalarial activity IC50) was over 100000 nM.
